Experimental data published in patent US20230147942A1, “PHARMACEUTICAL COMPOSITION COMPRISING NEW LACTOBACILLUS PLANTARUM KC3 STRAIN AND LEONURUS JAPONICUS EXTRACT AS ACTIVE INGREDIENTS FOR PREVENTING OR TREATING RESPIRATORY DISEASE AND USE THEREOF” (KT&G CORPORATION, priority 2020, published 2023).
Where a SMILES comes first, the peptide text is derived from it. Bridges are numbered along the chain shown (N, C = ends). [ ]: non-standard residue; d: D form. The star is where a group is joined. Ileψ(thiazoline)Cys = CC[C@H](C)[C@H](N)C1=N[C@H](C(=O)*)CS1; dOrn = NCCC[C@@H](N)C(=O)O

test system: Lactobacillus plantarum KC3; test: Antibiotic susceptibility of strain (antibiotic strips on LSM solid medium); format: cell-based; settings: 37° C., 24 hours
Method: In order to confirm antibiotics resistance level of the new lactic acid bacteria from the of the Lactobacillus plantarum KC3 the present disclosure, an experiment was performed as follows by applying the method described in the document
To measure the antibiotics resistance level of the strain, an MIC test was carried out. Lactic acid bacteria that were inoculated into an MRS medium (DF0881-17-5, Difco) and cultured at 37° C. for 18 hours were spread on an LSM solid medium (90% iso-sensitest broth (CM0473, Oxoid), 10% MRS medium (DF0881-17-5, Difco), and 1.5% agar (214010, Difco)). Strips for each type of antibiotics, such as Amikacin (92018, Liofilchem srl), Gentamycin (92009, Liofilchem srl), Kanamycin (92034, Liofilchem srl), Streptomycin (92112, Liofilchem srl), Penicillin-G (92102, Liofilchem srl), Oxacillin (92015, Liofilchem srl), Ampicillin (920030, Liofilchem srl), Bacitracin (92019, Liofilchem srl), Rifampicin (92001, Liofilchem srl), Polymyxin B (92004, Liofilchem srl), Chloramphenico 1(92075, Liofilchem srl), Vancomycin (92057, Liofilchem srl), and the like, were put on the medium, and the bacteria were grown at 37° C. for 24 hours.
In Table 4, R indicates resistance and represents that the size of an inhibition zone is about 0 mm; IS indicates mediate resistance and represents that the size of an inhibition zone is in a range of about 1 mm to about 5 mm; and S indicates susceptibility and represents that the size of an inhibition zone is greater than about 5 mm.

Row | Molecule | Antibiotic resistance (class) | Antibiotic resistance, size of inhibition zone [mm]
1 | CN[C@H](CC(C)C)C(=O)N[C@H]1C(=O)N[C@@H](CC(N)=O)C(=O)N[C@H]2C(=O)N[C@H]3C(=O)N[C@H](C(=O)N[C@H](C(=O)O)c4cc(O)cc(O)c4-c4cc3ccc4O)[C@H](O)c3ccc(c(Cl)c3)Oc3cc2cc(c3O[C@@H]2O[C@H](CO)[C@@H](O)[C@H](O)[C@H]2O[C@H]2C[C@](C)(N)[C@H](O)[C@H](C)O2)Oc2ccc(cc2Cl)[C@H]1O [Vancomycin] | R (R indicates resistance and represents that the size of an inhibition zone is about 0 mm) | 0
2 | [H]/N=C(/N)N[C@H]1[C@H](O)[C@@H](O)[C@H](O[C@@H]2O[C@@H](C)[C@](O)(C=O)[C@H]2O[C@@H]2O[C@@H](CO)[C@H](O)[C@@H](O)[C@@H]2NC)[C@@H](N/C(N)=N\[H])[C@@H]1O [Streptomycin] | R (R indicates resistance and represents that the size of an inhibition zone is about 0 mm) | 0
3 | CC1(C)S[C@@H]2[C@H](NC(=O)Cc3ccccc3)C(=O)N2[C@H]1C(=O)O [Penicillin-G] | IS (IS indicates mediate resistance and represents that the size of an inhibition zone is in a range of about 1 mm to about 5 mm) | 5
4 | CO[C@H]1/C=C/O[C@@]2(C)Oc3c(C)c(O)c4c(O)c(c(/C=N/N5CCN(C)CC5)c(O)c4c3C2=O)NC(=O)/C(C)=C\C=C\[C@H](C)[C@H](O)[C@@H](C)[C@@H](O)[C@@H](C)[C@H](OC(C)=O)[C@@H]1C [Rifampicin] | S (S indicates susceptibility and represents that the size of an inhibition zone is greater than about 5 mm) | 7
5 | Cc1onc(-c2ccccc2)c1C(=O)N[C@@H]1C(=O)N2[C@@H]1SC(C)(C)[C@@H]2C(=O)O [Oxacillin] | IS (IS indicates mediate resistance and represents that the size of an inhibition zone is in a range of about 1 mm to about 5 mm) | 2
6 | O=C(N[C@H](CO)[C@H](O)c1ccc([N+](=O)[O-])cc1)C(Cl)Cl [Chloramphenicol] | S (S indicates susceptibility and represents that the size of an inhibition zone is greater than about 5 mm) | 10
7 | CC1(C)S[C@@H]2[C@H](NC(=O)[C@H](N)c3ccccc3)C(=O)N2[C@H]1C(=O)O [Ampicillin] | S (S indicates susceptibility and represents that the size of an inhibition zone is greater than about 5 mm) | 14
8 | Gentamycin | IS (IS indicates mediate resistance and represents that the size of an inhibition zone is in a range of about 1 mm to about 5 mm) | 3
9 | Polymyxin B | R (R indicates resistance and represents that the size of an inhibition zone is about 0 mm) | 0
10 | CCC[C@@H]1C[C@@H](C(=O)N[C@@H]([C@H]2O[C@H](SC)[C@H](O)[C@@H](O)[C@H]2O)[C@@H](C)O)N(C)C1 [Lincomycin] | S (S indicates susceptibility and represents that the size of an inhibition zone is greater than about 5 mm) | 10
11 | Neomycin | IS (IS indicates mediate resistance and represents that the size of an inhibition zone is in a range of about 1 mm to about 5 mm) | 3
12 | CO[C@@H]1[C@@H](OC(N)=O)[C@@H](O)[C@H](Oc2ccc3c(O)c(NC(=O)c4ccc(O)c(CC=C(C)C)c4)c(=O)oc3c2C)OC1(C)C [Novabiocin] | S (S indicates susceptibility and represents that the size of an inhibition zone is greater than about 5 mm) | 7
13 | NC[C@H]1O[C@H](O[C@H]2[C@H](O)[C@@H](O[C@H]3O[C@H](CO)[C@@H](O)[C@H](N)[C@H]3O)[C@H](N)C[C@@H]2N)[C@H](O)[C@@H](O)[C@@H]1O [Kanamycin] | R (R indicates resistance and represents that the size of an inhibition zone is about 0 mm) | 0
14 | CC[C@H](C)[C@H](N)C1=N[C@H](C(=O)N[C@@H](CC(C)C)C(=O)N[C@H](CCC(=O)O)C(=O)N[C@H](C(=O)N[C@H]2CCCCNC(=O)[C@H](CC(N)=O)NC(=O)[C@@H](CC(=O)O)NC(=O)[C@H](Cc3cnc[nH]3)NC(=O)[C@@H](Cc3ccccc3)NC(=O)[C@H]([C@@H](C)CC)NC(=O)[C@@H](CCCN)NC2=O)[C@@H](C)CC)CS1 [Bacitracin] ({Ileψ(thiazoline)Cys}-L[dE]IK[dOrn]I[dF]H[dD]N; lactam 4-C) | S (S indicates susceptibility and represents that the size of an inhibition zone is greater than about 5 mm) | 7
15 | NCC[C@H](O)C(=O)N[C@@H]1C[C@H](N)[C@@H](O[C@H]2O[C@H](CN)[C@@H](O)[C@H](O)[C@H]2O)[C@H](O)[C@H]1O[C@H]1O[C@H](CO)[C@@H](O)[C@H](N)[C@H]1O [Amikacin] | IS (IS indicates mediate resistance and represents that the size of an inhibition zone is in a range of about 1 mm to about 5 mm) | 1
